From ChEMBL document CHEMBL1201862, “PubChem BioAssay data set” (2004)
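Grown in 96-well plates, cells were treated for 48 hours with each compound at five concentrations. Insufficient inhibition: endpoint recorded as highest concentration tested. Here, GI50 denotes the concentration required for 50% inhibition of growth.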 Activity calls are given as the source filed them. Rule as the data show it: active = GI50 up to about 1.1 µM and inactive = higher.

Assays:
Experiment in all cases: growth of human tumour cells (NCI), 48 h
OVCAR-5 = test system: OVCAR-5
RPMI-8226 = test system: RPMI-8226
786-0 = test system: 786-0
HOP-62 = test system: HOP-62
TK-10 = test system: TK-10
ACHN = test system: ACHN
EKVX = test system: EKVX
SK-MEL-28 = test system: SK-MEL-28
OVCAR-8 = test system: OVCAR-8
UACC-257 = test system: UACC-257
MDA-MB-435 = test system: MDA-MB-435
SNB-19 = test system: SNB-19
NCI/ADR-RES = test system: NCI/ADR-RES
T47D = test system: T47D
LOX IMVI = test system: LOX IMVI
MDA-N = test system: MDA-N
A498 = test system: A498
OVCAR-3 = test system: OVCAR-3
MCF7 = test system: MCF7
SF-539 = test system: SF-539

Measured: GI50

COc1ccc2cc(C(C)C(=O)N3C(=O)OCC3(C)C)ccc2c1 (stereo not drawn)
inactive: OVCAR-5 > 100 µM | RPMI-8226 > 100 µM | 786-0 > 100 µM | HOP-62 > 100 µM | TK-10 > 100 µM | ACHN > 100 µM | EKVX > 100 µM | SK-MEL-28 > 100 µM | OVCAR-8 > 100 µM | UACC-257 > 100 µM | MDA-MB-435 > 100 µM | SNB-19 > 100 µM | NCI/ADR-RES > 100 µM | T47D > 100 µM | LOX IMVI > 100 µM | MDA-N > 100 µM | A498 > 100 µM | OVCAR-3 > 100 µM | MCF7 > 100 µM

COc1ccc(-c2nc3ccccc3c(=S)n2OC(C)=O)cc1
inactive: OVCAR-5 > 25 µM | RPMI-8226 3.27 µM | SF-539 4.89 µM | 786-0 3.09 µM | HOP-62 4.76 µM | TK-10 > 25 µM | ACHN 2.99 µM | EKVX 6.46 µM | SK-MEL-28 6.5 µM | OVCAR-8 3.1 µM | UACC-257 13.1 µM | MDA-MB-435 7.1 µM | SNB-19 21.1 µM | NCI/ADR-RES 2.54 µM | T47D 3.5 µM | LOX IMVI 4.92 µM | MDA-N 12 µM | A498 23.9 µM | MCF7 5.92 µM

CC[C@]1(Cc2ccc(OC)c(OC)c2)C=[N+]([O-])O[C@H](OCc2ccccc2)[C@@H]1OC(C)=O
inactive: OVCAR-5 59.7 µM | RPMI-8226 18.2 µM | 786-0 36.2 µM | HOP-62 34.2 µM | TK-10 41.7 µM | ACHN 27.6 µM | EKVX 16.5 µM | SK-MEL-28 25.8 µM | OVCAR-8 30.3 µM | UACC-257 21.3 µM | MDA-MB-435 38.4 µM | SNB-19 58.3 µM | NCI/ADR-RES 33.3 µM | T47D 20 µM | LOX IMVI 17.5 µM | MDA-N 36.1 µM | A498 32.7 µM | OVCAR-3 15.8 µM | MCF7 29.7 µM

CC1=CC(=O)N(n2c(C)n[nH]c2=O)C1=O
inactive: OVCAR-5 > 100 µM | RPMI-8226 > 100 µM | SF-539 > 100 µM | 786-0 > 100 µM | TK-10 > 100 µM | ACHN > 100 µM | EKVX > 100 µM | OVCAR-8 > 100 µM | UACC-257 > 100 µM | MDA-MB-435 > 100 µM | SNB-19 > 100 µM | NCI/ADR-RES > 100 µM | T47D > 100 µM | LOX IMVI > 100 µM | MDA-N > 100 µM | A498 > 100 µM | OVCAR-3 > 100 µM | MCF7 > 100 µM

CSCCCCCCCCCCOc1ccc(C=C2C(=C(C#N)C#N)c3ccccc3C2=C(C#N)C#N)cc1
inactive: OVCAR-5 16.6 µM | RPMI-8226 28.8 µM | SF-539 18 µM | 786-0 17.5 µM | HOP-62 17.9 µM | TK-10 19.4 µM | ACHN 13.1 µM | EKVX 18.1 µM | SK-MEL-28 16.1 µM | OVCAR-8 17.5 µM | UACC-257 18.9 µM | MDA-MB-435 16.7 µM | NCI/ADR-RES 29 µM | T47D 21.6 µM | LOX IMVI 23.5 µM | MDA-N 18.3 µM | A498 17 µM | OVCAR-3 16.4 µM | MCF7 14.5 µM

O=C(O)CCC1(c2ccccc2)NC(=O)NC1=O (stereo not drawn)
inactive: OVCAR-5 > 100 µM | RPMI-8226 > 100 µM | SF-539 > 100 µM | 786-0 > 100 µM | HOP-62 > 100 µM | TK-10 > 100 µM | ACHN > 100 µM | EKVX > 100 µM | SK-MEL-28 > 100 µM | OVCAR-8 > 100 µM | UACC-257 > 100 µM | MDA-MB-435 > 100 µM | NCI/ADR-RES > 100 µM | T47D > 100 µM | LOX IMVI > 100 µM | MDA-N > 100 µM | A498 > 100 µM | OVCAR-3 > 100 µM | MCF7 > 100 µM
